The results in this text go back to EP4617278A1, “NUCLEOTIDE ANALOG, AND COMPOSITION AND USE THEREOF” (priority 2022, dated 2024).

The subject of the first assay is RSV A2 virus. Kind of assay: RSV CPE assay. To be noted: human respiratory syncytial virus, HEp-2, 120 h, read-out: RSV A2 (Hep-2 cell) EC50.
Turning to `CC(C)C(=O)O[C@H]1[C@@H](OC(=O)C(C)C)[C@](C#N)(c2ccc3c(N)ncnn23)O[C@@H]1CO[P@@](=O)(N[C@@H](Cc1ccccc1)C(=O)OC1CCC1)Oc1ccccc1` [Compound 63b, (2R,3R,4R,5R)-2-(4-aminopyrrolo[2,1-f][1,2,4]triazin-7-yl)-2-cyano-5-((((S)-(((S)-1-cyclobutoxy-1-oxo-3-phenylpropan-2-yl)amino)(phenoxy)phosphoryl)oxy)methyl)tetrahydrofuran-3,4-diyl bis(2-methylpropionate)], the EC50 (usually the concentration giving half of the maximal effect) was under 100 nM. The same measure, in the same setting: the figure for `CCC(CC)COC(=O)[C@H](Cc1ccccc1)N[P@@](=O)(OCOC(=O)OC(C)C)OC[C@H]1O[C@@](C#N)(c2ccc3c(N)ncnn23)[C@H](OC(=O)C(C)C)[C@@H]1OC(=O)C(C)C` [Compound 31b, (2R,3R,4R,5R)-2-(4-aminopyrrolo[2,1-f][1,2,4]triazin-7-yl)-2-cyano-5-((((S)-(((S)-1-(2-ethylbutoxy)-1-oxo-3-phenylpropan-2-yl)amino)(((isopropoxycarbonyl)oxy)methoxy)phosphoryl)oxy)methyl)tetrahydrofuran-3,4-diyl bis(2-methylpropionate)] is 200 to 500 nM; for `CC(C)C(=O)OCOP(=O)(OC[C@H]1O[C@@](C#N)(c2ccc3c(N)ncnn23)[C@H](OC(=O)C(C)C)[C@@H]1OC(=O)C(C)C)Oc1ccc(C(C)(C)C)cc1` (mixture of isomers) [Compound 26, (2R,3R,4R,5R)-2-(4-aminopyrrolo[2,1-f][1,2,4]triazin-7-yl)-5-((((4-tert-butylphenoxy)((isobutyryloxy)methoxy)phosphoryl)oxy)methyl)-2-cyanotetrahydrofuran-3,4-diyl bis(2-methylpropionate)] it is over 1000 nM.

As to `CC(C)OC(=O)OCOP(=O)(OCOC(=O)OC(C)C)OC[C@H]1O[C@@](C#N)(c2ccc3c(N)ncnn23)[C@H](OC(=O)C(C)(C)C)[C@@H]1OC(=O)C(C)(C)C` [Compound 20, (2R,3R,4R,5R)-2-(4-aminopyrrolo[2,1-f][1,2,4]triazin-7-yl)-5-((((bis(((isopropoxycarbonyl)oxy)methoxy))phosphoryl)oxy)methyl)-2-cyanotetrahydrofuran-3,4-diyl bis(2,2-dimethylpropionate)], the EC50 was over 1000 nM.

For `CC(C)OC(=O)OCO[P@@](=O)(OC[C@H]1O[C@@](C#N)(c2ccc3c(N)ncnn23)[C@H](OC(=O)C(C)C)[C@@H]1OC(=O)C(C)C)Oc1ccc(C(C)(C)C)cc1` [Compound 24a, (2R,3R,4R,5R)-2-(4-aminopyrrolo[2,1-f][1,2,4]triazin-7-yl)-5-((((S)-(4-tert-butylphenoxy)(((isopropoxycarbonyl)oxy)methoxy)phosphoryl)oxy)methyl)-2-cyanotetrahydrofuran-3,4-diyl bis(2-methylpropionate)], the EC50 was over 1000 nM. With `CC(C)OC(=O)OCO[P@](=O)(N[C@@H](C)C(=O)OC1CCC1)OC[C@H]1O[C@@](C#N)(c2ccc3c(N)ncnn23)[C@H](OC(=O)C(C)C)[C@@H]1OC(=O)C(C)C` [Compound 13b, (2R,3R,4R,5R)-2-(4-aminopyrrolo[2,1-f][1,2,4]triazin-7-yl)-2-cyano-5-((((S)-(((S)-1-cyclobutoxy-1-oxopropan-2-yl)amino)(((isopropoxycarbonyl)oxy)methoxy)phosphoryl)oxy)methyl)tetrahydrofuran-3,4-diyl bis(2-methylpropionate)], the concentration for a half-maximal effect (EC50) is 200 to 500 nM.

For the molecule `CCC(CC)COC(=O)C[C@H](N[P@](=O)(OC[C@H]1O[C@@](C#N)(c2ccc3c(N)ncnn23)[C@H](OC(=O)C(C)C)[C@@H]1OC(=O)C(C)C)Oc1ccccc1)C(=O)OCC(CC)CC` [Compound 62b, (2R,3R,4R,5R)-2-(4-aminopyrrolo[2,1-f][1,2,4]triazin-7-yl)-2-cyano-5-((((S)-(((S)-1,4-bis(2-ethylbutoxy)-1,4-dioxobutan-2-yl)amino)(phenoxy)phosphoryl)oxy)methyl)tetrahydrofuran-3,4-diyl bis(2-methylpropionate)], the EC50 was under 100 nM. The same measure, in the same setting: the figure for `CC(C)(C)C(=O)O[C@H]1[C@@H](OC(=O)C(C)(C)C)[C@](C#N)(c2ccc3c(N)ncnn23)O[C@@H]1CO[P@@](=O)(N[C@@H](CC(=O)OC1CCC1)C(=O)OC1CCC1)Oc1ccccc1` [Compound 57b, (2R,3R,4R,5R)-2-(4-aminopyrrolo[2,1-f][1,2,4]triazin-7-yl)-2-cyano-5-((((S)-(((S)-1,4-dicyclobutoxy-1,4-dioxobutan-2-yl)amino)(phenoxy)phosphoryl)oxy)methyl)tetrahydrofuran-3,4-diyl bis(2,2-dimethylpropionate)] is 200 to 500 nM.

As to `CC(C)C(=O)O[C@H]1[C@@H](OC(=O)C(C)C)[C@](C#N)(c2ccc3c(N)ncnn23)O[C@@H]1CO[P@@](=O)(N[C@@H](CC(=O)OC1CCC1)C(=O)OC1CCC1)Oc1ccccc1` [Compound 54b, (2R,3R,4R,5R)-2-(4-aminopyrrolo[2,1-f][1,2,4]triazin-7-yl)-2-cyano-5-((((S)-(((S)-1,4-dicyclobutoxy-1,4-dioxobutan-2-yl)amino)(phenoxy)phosphoryl)oxy)methyl)tetrahydrofuran-3,4-diyl bis(2-methylpropionate)], the EC50 was under 100 nM. The same measure, in the same setting: the figure for `CC(C)OC(=O)OCO[P@@](=O)(N[C@@H](C)C(=O)OC(C)C)OC[C@H]1O[C@@](C#N)(c2ccc3c(N)ncnn23)[C@H](OC(=O)C(C)C)[C@@H]1OC(=O)C(C)C` [Compound 3a, (2R,3R,4R,5R)-2-(4-aminopyrrolo[2,1-f][1,2,4]triazin-7-yl)-2-cyano-5-((((R)-(((S)-1-isopropoxy-1-oxopropan-2-yl)amino)(((isopropoxycarbonyl)oxy)methoxy)phosphoryl)oxy)methyl)tetrahydrofuran-3,4-diyl bis(2-methylpropionate)] is 200 to 500 nM.

Staying with this assay, now noted: read-out: RSV A2 (Hep-2 cell) EC50; HEp-2 cells, RSV A2 virus, 5 days, CCK8.
Take “(2R,3R,4R,5R)-2-(4-aminopyrrolo[2,1-f][1,2,4]triazin-7-yl)-2-cyano-5-((((S)-(((S)-1,4-bicyclopentyloxy-1,4-dioxobutan-2-yl)amino)(phenoxy)phosphoryl)oxy)methyl)tetrahydrofuran-3,4-diyl diacetate [Compound 58b]”: the half-maximal effective concentration (EC50) was under 100 nM.

Consider “(2R,3R,4R,5R)-2-(4-aminopyrrolo[2,1-f][1,2,4]triazin-7-yl)-2-cyano-5-((((S)-(((S)-1,4-dicyclobutoxy-1,4-dioxobutan-2-yl)amino)(phenoxy)phosphoryl)oxy)methyl)tetrahydrofuran-3,4-diyl diacetate [Compound 55b]”, for which the concentration giving a half-maximal response (EC50) lay within 100 to 200 nM. Take `CCC(CC)COC(=O)[C@H](Cc1ccccc1)N[P@@](=O)(OC[C@H]1O[C@@](C#N)(c2ccc3c(N)ncnn23)[C@H](OC(=O)C(C)C)[C@@H]1OC(=O)C(C)C)Oc1ccc(C(C)(C)C)cc1` [Compound 53a, (2R,3R,4R,5R)-2-(4-aminopyrrolo[2,1-f][1,2,4]triazin-7-yl)-2-cyano-5-((((((S)-1-(2-ethylbutoxy)-1-oxo-3-phenylpropan-2-yl)amino)((R)-4-tert-butylphenoxy)phosphoryl)oxy)methyl)tetrahydrofuran-3,4-diyl bis(2-methylpropionate)]: the EC50 was under 100 nM.
